Source: patent publication US12029713B2, “Compositions and methods for the treatment of brain injury” (THE CHILDREN'S HOSPITAL OF PHILADELPHIA, priority 2013, dated 2024)

Tests used:
[1] = system: fluid percussion injury mice; assay: Conditioned fear response (CFR) after fluid percussion injury, GTA oral gavage; format: in vivo, mouse; settings: 5 mg/kg oral gavage for 5 days, CFR on day 7 (FIG. 5)
Protocol: A fluid percussion injury assay was performed. Briefly, a craniotomy was performed on anesthetized mice using a 3 mm trephine and a Luer-Hoc needle hub attached to the skull and capped. The following day, a fluid percussion injury device was employed to deliver a pulse of saline through the hub at a pressure between 1.4-2.14 atm, producing a mild to moderate percussion injury. Sham animals received all anesthesia and surgical procedures except for the fluid pulse.
Mice were allowed to recover for one day. Mice were then treated with 5 mg/kg of glyceryl triacetate (GTA) via oral gavage for 5 days. The conditioned fear response (CFR) assay was performed on day 7.

[2] = within one hour of administration; cited from earlier work

## CC(=O)OCC(COC(C)=O)OC(C)=O [GTA, glyceryl triacetate]
[1]
  fear response (CFR) compared to mice receiving the brain injury without treatment: statistically superior
[2]
  increase of acetate levels in the brain: over 15 fold
